Key:
erythema = assay: Anti-erythema activity by the Wilhelmi method, oral; format: in vivo; details: Cavia porcellus, Guinea pig
Excerpt: The anti-erythema activity was observed by the Wilhelmi method
[Wilhelmi,g.,(1949), Schweiz.Med.Wehnschr.,79, 577]. The anti-edema

in vivo = details: mouse, po
Experimental: Arch. int. […] The toxicity was tested by the ora
administration of the tested compound to mice.

Compound | ED50 (erythema) [mg/kg] | LD50 (in vivo) [mg/kg]
CC(C(=O)O)c1ccnc(Oc2ccccc2)c1 (stereo not drawn) [Calcium bis[2-(2-phenoxy-4-pyridyl)-propionate]] | 47 | 2250
CC(=O)Oc1ccccc1C(=O)O [Aspirin, reference compound] | 79 | 2000
CCCCC1C(=O)N(c2ccccc2)N(c2ccccc2)C1=O [Phenylbutazone, reference compound] | 26 | 
CC(C(=O)O)c1ccc(Oc2ccc(Cl)cc2)nc1 (stereo not drawn) [2-(2-p-Chlorophenoxy-5-pyridyl)-propionic acid] | 19 | 1150
CC(C(=O)O)c1ccc(Oc2ccccc2)nc1 (stereo not drawn) [Calcium bis[2-(2-phenoxy-5-pyridyl)-propionate]] | 21 | 1640

Source: patent publication US3994908A, “Substituted acetic acid derivatives and production thereof” (Shionogi & Co., Ltd., priority 1972, dated 1976)
